We go through 21 compounds from article PMC10976173, “Synthesis of 5-Benzylamino and 5-Alkylamino-Substituted Pyrimido[4,5-c]quinoline Derivatives as CSNK2A Inhibitors with Antiviral Activity” (Pharmaceuticals, 2024).

For orientation: IC50 means the concentration that gives 50% inhibition. The low end stands for greater potency in that assay, the high end for weaker potency in that assay. Broadly, the melting point is the temperature of the solid-liquid transition. One may read the solubility as how much of the substance goes into solution per volume. The low end stands for a poorly soluble substance, the high end for a readily soluble substance.

Structures are written as SMILES. In brackets after ≈: the same amount, converted by molar mass. Where only a bound is given, the exact number is not on record here.

For one series, the target named is T1, CSNK2A (CSNK2A2-NLuc) (Homo sapiens, UniProt P19784).
T1 construct: expressed in transfected cells; host or cells: HEK293
The experiment in a line: In-cell CSNK2A target engagement by NanoBRET assay. It is filed as cell-based. Particulars: for IC50: In-cell target engagement by NanoBRET assay, HEK293 cells; for fold decrease in CSNK2A potency: compared to the parent compounds (4s and 4w); for Designation: active / inactive analogs with 10-fold differences in IC50. (Bioluminescence resonance energy transfer reports proximity on the nanometre scale.)

A short description of series [1]: Kinetic solubility in PBS pH 7.4. It is filed as physicochemical. Particulars: phosphate-buffered saline, pH 7.4, aqueous buffer, kinetic from dmso stock, PBS pH 7.4, 24 h. On the procedure: Kinetic solubility assay was conducted using 10 mM DMSO stocks of compounds in phosphate-buffered saline solution (PBS) at pH 7.4 by Analiza, Inc., Cleveland, OH, USA. […] The calculated values were corrected for the background nitrogen in the media and DMSO.

T1 sequence (P19784 whole entry): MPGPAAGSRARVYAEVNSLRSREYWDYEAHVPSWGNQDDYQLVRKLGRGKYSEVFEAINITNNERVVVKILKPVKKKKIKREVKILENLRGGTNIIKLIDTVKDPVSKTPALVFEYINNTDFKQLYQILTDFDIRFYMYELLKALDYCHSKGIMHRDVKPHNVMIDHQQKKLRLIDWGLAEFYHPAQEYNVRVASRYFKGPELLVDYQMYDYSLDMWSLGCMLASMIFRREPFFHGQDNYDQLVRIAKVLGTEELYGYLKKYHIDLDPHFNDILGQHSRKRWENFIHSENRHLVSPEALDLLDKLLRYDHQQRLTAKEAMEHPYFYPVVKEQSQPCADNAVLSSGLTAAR
Procedure for CSNK2A (CSNK2A2-NLuc): A transfection complex of DNA at 10 µg/mL was created, consisting of 9 µg/mL of carrier DNA (Promega, Madison, WI, USA) and 1 µg/mL of CSNK2A2-NLuc fusion DNA in Opti-MEM without serum (Gibco). FuGENE HD (Promega) was added at 30 µL/mL to form a lipid/DNA complex. The solution was then mixed and incubated at room temperature for 20 min. […] The following day, the media was removed via aspiration and replaced with 85 μL of Opti-MEM without phenol red. A total of 5 μL per well of 20×-NanoBRET Tracer K10 (Promega) at 5 μM in Tracer Dilution Buffer (Promega N291B) was added to all wells, except the “no tracer” control wells. Test compounds (10 mM in DMSO) were diluted 100× in Opti-MEM media to prepare stock solutions and evaluated at eleven concentrations. A total of 10 μL per well of the 10-fold test compound stock solutions (final assay concentration of 0.1% DMSO) was added. […] 96-well plates containing cells with NanoBRET Tracer K10 and test compounds (100 µL total volume per well) were equilibrated (37 °C/5% CO2) for 2 h. The plates were cooled to room temperature for 15 min. […] A total of 50 μL of the 3× substrate/extracellular NL inhibitor were added to each well. The plates were read within 30 min on a GloMax Discover luminometer (Promega) equipped with 450 nm BP filter (donor) and 600 nm LP filter (acceptor) using 0.3 s integration time. Raw milliBRET (mBRET) values were obtained by dividing the acceptor emission values (600 nm) by the donor emission values (450 nm) and multiplying by 1000. […] The data were first normalized and then fit using Sigmoidal, 4PL binding curve in GraphPad Prism version 9.5.1 to determine IC50 values (Figure S1).

For the compound `O=C(O)c1ccc2c(c1)nc(NCc1ccc(-c3ccc(Cl)cc3)cc1)c1ncncc12` [Compound 4l, 5-(((4′-chloro-[1,1′-biphenyl]-4-yl)methyl)amino)pyrimido[4,5-c]quinoline-8-carboxylic acid], the melting point fell in the range of 246 to 248 °C. On CSNK2A (CSNK2A2-NLuc), the IC50 worked out at 1.9 µM. Further, the solubility at 24 h in series [1] was < 1 µM.

As for `N#Cc1ccc(CNc2nc3cc(C(=O)O)ccc3c3cncnc23)cc1` [Compound 4k, 5-((4-cyanobenzyl)amino)pyrimido[4,5-c]quinoline-8-carboxylic acid], the melting point is 270 to 275 °C. Moreover, half-maximal inhibition on CSNK2A (CSNK2A2-NLuc) (IC50) required 0.53 µM. The amount in solution in series [1] (solubility at 24 h) came to 160 µM (≈ 56.9 µg/mL).

On to `CN1CCC(CNc2nc3cc(C(=O)O)ccc3c3cncnc23)CC1` [Compound 4ab, 5-(((1-methylpiperidin-4-yl)methyl)amino)pyrimido[4,5-c]quinoline-8-carboxylic acid], for which the melting point lay within 205 to 208 °C. The compound also returned an IC50 against CSNK2A (CSNK2A2-NLuc) of 48.7 µM. Moreover, the concentration in solution in series [1] (solubility at 24 h) came to 220 µM (≈ 77.3 µg/mL).

`O=C(O)c1ccc2c(c1)nc(NCC1CCOC1)c1ncncc12` (stereo not shown) [Compound 4y, 5-(((tetrahydrofuran-3-yl)methyl)amino)pyrimido[4,5-c]quinoline-8-carboxylic acid] showed a melting point of 160 to 164 °C. Further, at CSNK2A (CSNK2A2-NLuc), the midpoint of inhibition, the IC50, lay at 3.1 µM and the “fold decrease in CSNK2A potency” value came out at 10 fold. In series [1], this compound registered a solubility at 24 h of 140 µM (≈ 45.4 µg/mL).

On to `O=C(O)c1ccc2c(c1)nc(NCc1ccc3ccccc3c1)c1ncncc12` [Compound 4m, 5-((naphthalen-2-ylmethyl)amino)pyrimido[4,5-c]quinoline-8-carboxylic acid], for which the melting point is 250 to 253 °C. It took 0.5 µM to reach half-maximal inhibition against CSNK2A (CSNK2A2-NLuc) (IC50). In series [1], this compound registered a solubility at 24 h of 5 µM (≈ 1.9 µg/mL).

For the compound `O=C(O)c1ccc2c(c1)nc(NCc1ccccn1)c1ncncc12` [Compound 4n, 5-((pyridin-2-ylmethyl)amino)pyrimido[4,5-c]quinoline-8-carboxylic acid], the melting point lay within 250 to 254 °C. For the same compound, the 50% inhibitory concentration (IC50) at CSNK2A (CSNK2A2-NLuc) stood at 8 µM. For the same compound, in series [1], the solubility at 24 h was determined as 140 µM (≈ 46.4 µg/mL).

In the case of `COc1ccccc1CNc1nc2cc(C(=O)O)ccc2c2cncnc12` [Compound 4d, 5-((2-methoxybenzyl)amino)pyrimido[4,5-c]quinoline-8-carboxylic acid], the melting point was 230 to 233 °C. At CSNK2A (CSNK2A2-NLuc), this compound had an IC50 of 1 µM. In addition, the concentration in solution in series [1] (solubility at 24 h) was 140 µM (≈ 50.5 µg/mL).

In turn, `O=C(O)c1ccc2c(c1)nc(NCc1cccc(Cl)c1)c1ncncc12` [Compound 4b, 5-((3-chlorobenzyl)amino)pyrimido[4,5-c]quinoline-8-carboxylic acid] registered a melting point of 240 to 243 °C. This compound gave an IC50 on CSNK2A (CSNK2A2-NLuc) of 0.37 µM. Moreover, the concentration in solution in series [1] (solubility at 24 h) came to 150 µM (≈ 54.7 µg/mL).

In turn, `O=C(O)c1ccc2c(c1)nc(NCc1ccc(C(F)(F)F)cc1)c1ncncc12` [Compound 4j, 5-((4-(trifluoromethyl)benzyl)amino)pyrimido[4,5-c]quinoline-8-carboxylic acid] had a melting point of 245 to 248 °C. Half-maximal inhibition against CSNK2A (CSNK2A2-NLuc) (IC50) was put at 0.64 µM. The same compound came in with a solubility at 24 h in series [1] of 160 µM (≈ 63.7 µg/mL).

`CC(Nc1nc2cc(C(=O)O)ccc2c2cncnc12)c1ccccc1` (stereo not shown) [Compound 4ae, 5-((1-phenylethyl)amino)pyrimido[4,5-c]quinoline-8-carboxylic acid] registered a melting point of 228 to 232 °C. On CSNK2A (CSNK2A2-NLuc), the half-inhibitory concentration (IC50) worked out at 1.9 µM and the Designation entry is listed as “Inactive”. In series [1], the concentration in solution (solubility at 24 h) came to 180 µM (≈ 62 µg/mL).

Turning to `O=C(O)c1ccc2c(c1)nc(N[C@H]1CCc3ccccc31)c1ncncc12` [Compound 4ag, (S)-5-((2,3-dihydro-1H-inden-1-yl)amino)pyrimido[4,5-c]quinoline-8-carboxylic acid], the melting point lay within 252 to 255 °C. The IC50 against CSNK2A (CSNK2A2-NLuc) came out at 0.3 µM.

The compound `COc1ccc(CNc2nc3cc(C(=O)O)ccc3c3cncnc23)cc1` [Compound 4f, 5-((4-methoxybenzyl)amino)pyrimido[4,5-c]quinoline-8-carboxylic acid] came in with a melting point of 246 to 247 °C. This compound had a 50% inhibitory concentration (IC50) at CSNK2A (CSNK2A2-NLuc) of 0.28 µM. The solubility at 24 h in series [1] stood at 160 µM (≈ 57.7 µg/mL).

In turn, `CC(C)CNc1nc2cc(C(=O)O)ccc2c2cncnc12` [Compound 4q, 5-(isobutylamino)pyrimido[4,5-c]quinoline-8-carboxylic acid] had a melting point of 270 to 273 °C. The compound further gave an IC50 on CSNK2A (CSNK2A2-NLuc) of 1.2 µM. For the same compound, in series [1], the solubility at 24 h was 170 µM (≈ 50.4 µg/mL).

On to `O=C(O)c1ccc2c(c1)nc(NCc1cccnc1)c1ncncc12` [Compound 4o, 5-((pyridin-3-ylmethyl)amino)pyrimido[4,5-c]quinoline-8-carboxylic acid], for which the melting point fell in the range of 270 to 274 °C. The compound further yielded a 50% inhibitory concentration (IC50) at CSNK2A (CSNK2A2-NLuc) of 6 µM. The compound also returned a solubility at 24 h in series [1] of 200 µM (≈ 66.3 µg/mL).

As to `CN(CC1CCCCC1)c1nc2cc(C(=O)O)ccc2c2cncnc12` [Compound 4ad, 5-((cyclohexylmethyl)(methyl)amino)pyrimido[4,5-c]quinoline-8-carboxylic acid], the melting point lay in the range of 229 to 231 °C. At CSNK2A (CSNK2A2-NLuc), the half-maximal inhibitory concentration (IC50) is 2.4 µM and the Designation entry is “Inactive”. Moreover, on CSNK2A (CSNK2A2-NLuc) (compared to unmethylated parent amine 4t), the “fold less active on CSNK2A” value worked out at 17 fold. The same compound gave a solubility at 24 h in series [1] of 200 µM (≈ 70.1 µg/mL).

As to `Cc1ccc(CNc2nc3cc(C(=O)O)ccc3c3cncnc23)cc1` [Compound 4h, 5-((4-methylbenzyl)amino)pyrimido[4,5-c]quinoline-8-carboxylic acid], the melting point was in the range of 201 to 204 °C. This compound returned an IC50 against CSNK2A (CSNK2A2-NLuc) of 0.34 µM. Further, the concentration in solution in series [1] (solubility at 24 h) came to 170 µM (≈ 58.5 µg/mL).

For `O=C(O)c1ccc2c(c1)nc(N1CCc3ccccc3C1)c1ncncc12` [Compound 4ai, 5-(3,4-dihydroisoquinolin-2(1H)-yl)pyrimido[4,5-c]quinoline-8-carboxylic acid], the melting point lay in the range of 204 to 208 °C. On CSNK2A (CSNK2A2-NLuc), the IC50 stood at 1.2 µM and the Designation result is recorded as “Inactive”. Also, in series [1], the solubility at 24 h amounted to 160 µM (≈ 57 µg/mL).

Consider `O=C(O)c1ccc2c(c1)nc(NCc1ccc(C(F)F)cc1)c1ncncc12` [Compound 4i, 5-((4-(difluoromethyl)benzyl)amino)pyrimido[4,5-c]quinoline-8-carboxylic acid], for which the melting point is 250 to 255 °C. At CSNK2A (CSNK2A2-NLuc), this compound gave an IC50 of 0.47 µM. In series [1], this compound yielded a solubility at 24 h of 150 µM (≈ 57.1 µg/mL).

For `O=C(O)c1ccc2c(c1)nc(NCC13CCC(CC1)O3)c1ncncc12` [Compound 4z, 5-(((7-oxabicyclo[2.2.1]heptan-1-yl)methyl)amino)pyrimido[4,5-c]quinoline-8-carboxylic acid], the melting point was 280 to 284 °C. Also, at CSNK2A (CSNK2A2-NLuc), the IC50 was determined as 1.4 µM and the “fold decrease in CSNK2A potency” value is reported as 10 fold. In addition, the concentration in solution in series [1] (solubility at 24 h) was 220 µM (≈ 77.1 µg/mL).

`COc1cccc(CNc2nc3cc(C(=O)O)ccc3c3cncnc23)c1` [Compound 4e, 5-((3-methoxybenzyl)amino)pyrimido[4,5-c]quinoline-8-carboxylic acid] returned a melting point of 210 to 214 °C. This compound also came in with an IC50 against CSNK2A (CSNK2A2-NLuc) of 0.6 µM. Also, the concentration in solution in series [1] (solubility at 24 h) was 170 µM (≈ 61.3 µg/mL).

`O=C(O)c1ccc2c(c1)nc(N[C@@H]1CCc3ccccc31)c1ncncc12` [Compound 4ah, (R)-5-((2,3-dihydro-1H-inden-1-yl)amino)pyrimido[4,5-c]quinoline-8-carboxylic acid] gave a melting point of 260 to 262 °C. Moreover, on CSNK2A (CSNK2A2-NLuc), the IC50 is > 10 µM.
